Data reported in patent US10905672B2, “Combination of baclofen, acamprosate and medium chain triglycerides for the treatment of neurological disorders” (PHARNEXT, priority 2014, dated 2021).
“Also recorded” adds a separate entry of the source.

Key:
[1] = system: Abeta 25-35 intoxicated mice; assay: Step-through passive avoidance test (contextual long-term memory) after icv Abeta 25-35; format: in vivo, Swiss mice
Description: (§1) Male Swiss mice are used throughout the study. Animals are housed in plastic cages, with free access to laboratory chow and water, except during behavioral experiments, and kept in a regulated environment, under a 12 h light/dark cycle (light on at 8:00 a.m.). Experiments are carried out in a soundproof and air-regulated experimental room to which mice have been habituated at least 30 min before each experiment.
Drug(s) is/are administered daily by gavage (per os). The Abeta 25-35 peptide and scrambled Abeta 25-35 peptide (control) have been dissolved in sterile bidistilled water, and stored at −20° C. until use. The Abeta peptides are then administered intracerebroventricularly (icy). In brief, each mouse is anesthetized lightly with ether, and a gauge stainless-steel needle is inserted unilaterally 1 mm to the right of the midline point equidistant from each eye, at an equal distance between the eyes and the ears and perpendicular to the plane of the skull. Peptides or vehicle are delivered gradually within approximately 3 s. […] The administration site is checked by injecting Indian ink in preliminary experiments. Neither insertion of the needle nor injection of the vehicle has a significant influence on survival, behavioral responses or cognitive functions. […]
On days 8 and 9, the contextual long-term memory of the animals is assessed using the step-through type passive avoidance procedure.
The apparatus is a two-compartment (15×20×15 cm high) box with one compartment being illuminated with white polyvinylchloride walls and the other compartment darkened with black polyvinylchloride walls and a grid floor. […] The step-through latency, that is, the latency spent to enter the darkened compartment, and the number of vocalizations is recorded. […] After 5 s the door is raised, and the step-through latency and the escape latency, i.e., the time spent to return into the white compartment, are recorded up to 300 s.

[2] = system: Abeta 25-35 intoxicated mice; assay: Spontaneous alternation performance, Y-maze test (spatial working memory) after icv Abeta 25-35; format: in vivo, Swiss mice; settings: tested day 7
Description: as §1
Drug(s) is/are administered daily by gavage (per os). The Abeta 25-35 peptide and scrambled Abeta 25-35 peptide (control) have been dissolved in sterile bidistilled water, and stored at −20° C. until use. The Abeta peptides are then administered intracerebroventricularly (icy). In brief, each mouse is anesthetized lightly with ether, and a gauge stainless-steel needle is inserted unilaterally 1 mm to the right of the midline point equidistant from each eye, at an equal distance between the eyes and the ears and perpendicular to the plane of the skull. Peptides or vehicle are delivered gradually within approximately 3 s. […] The administration site is checked by injecting Indian ink in preliminary experiments. Neither insertion of the needle nor injection of the vehicle has a significant influence on survival, behavioral responses or cognitive functions.
On day −1, i.e., 24 h before the Abeta 25-35 peptide injection, drugs, candidate combinations, baclofen acamprosate mix, or the vehicle solution are administered per os by gavage twice daily (at 8:00 a.m. and 6:00 p.m.), and caprylic triglyceride is administered per os by gavage once daily (at 8:00 a.m.).
On day 0 (at 10:00 a.m.), mice are injected icy with Abeta 25-35 peptide or scrambled Abeta 25-35 peptide (control) in a final volume of 3 μL (3 mM).
Between day 0 and day 7, drugs, drug combinations or the vehicle solution are administered per os by gavage once or twice daily (at 8:00 a.m. for caprylic triglyceride or at 8:00 a.m. and 6:00 p.m. for baclofen and acamprosate). As a positive control, one animal group receives donepezil (reference compound—1 mg/kg/day) per os by gavage in a single injection (at 8:00 a.m.). Drugs are solubilized in water and freshly prepared just before each gavage administration.
On day 7, all animals are tested for spontaneous alternation performance in the Y-maze test, an index of spatial working memory (short-term memory).
On day 7, all animals are tested for spontaneous alternation performance in the Y-maze, an index of spatial working memory. The Y-maze is made of grey polyvinylchloride. Each arm is 40 cm long, 13 cm high, 3 cm wide at the bottom, 10 cm wide at the top, and converges at an equal angle. Each mouse is placed at the end of one arm and allowed to move freely through the maze during an 8 min session. The series of arm entries, including possible returns into the same arm, are checked visually. An alternation is defined as entries into all three arms on consecutive occasions. The number of maximum alternations is therefore the total number of arm entries minus two and the percentage of alternation is calculated as (actual alternations/maximum alternations)×100. Parameters include the percentage of alternation (memory index) and total number of arm entries (exploration index). Animals that show an extreme behavior (alternation percentage <25% or >85% or number of arm entries <10) are discarded. Usually, this accounts for 0-5% of the animals. […]

CCCCCCCC(=O)OCC(COC(=O)CCCCCCC)OC(=O)CCCCCCC [C8 MCT, caprylic triglyceride]
effect on memory defects (step-through latency) compared to Abeta 25-35 intoxicated animals ([1]; C8 MCT alone, 0.555, 1.66 and 5 g/kg/d per os, FIG. 2-A): does not provide any statistically significant effect
effect on working memory (percentage of alternation) compared to Abeta 25-35 intoxicated animals ([2]; caprylic triglyceride alone, 0.555, 1.66 and 5 g/kg/d per os once daily, FIG. 1-A): does not improve working memory
effect on working memory (percentage of alternation) compared to Abeta 25-35 intoxicated animals ([2]; caprylic triglyceride alone, 0.555, 1.66 and 5 g/kg/d per os once daily, FIG. 1-A, listed as caprylic triglyceride): No significant effect

NCC(CC(=O)O)c1ccc(Cl)cc1 (centres unmarked) [Baclofen, baclofen]
effect on memory defects (step-through latency) compared to Abeta 25-35 intoxicated animals ([1]; baclofen monotherapy, 480 μg/kg/bid per os, FIG. 2-B): does not provide any improvement
effect on working memory (percentage of alternation) compared to Abeta 25-35 intoxicated animals ([2]; baclofen alone, 480 μg/kg/bid per os, FIG. 1-B): does not improve working memory
effect on working memory (percentage of alternation) compared to Abeta 25-35 intoxicated animals ([2]; baclofen alone, 480 μg/kg/bid per os, FIG. 1-B, listed as baclofen): No significant effect

CC(=O)NCCCS(=O)(=O)O [acamprosate]
effect on memory defects (step-through latency) compared to Abeta 25-35 intoxicated animals ([1]; acamprosate monotherapy, 32 μg/kg/bid per os, FIG. 2-B): does not provide any improvement
effect on working memory (percentage of alternation) compared to Abeta 25-35 intoxicated animals ([2]; acamprosate alone, 32 μg/kg/bid per os, FIG. 1-B): No significant effect; also recorded: does not improve working memory
